Laboratory results published in patent publication US20080114031A1, “MONOSACCHARIDE DERIVATIVES” (priority 2006, published 2008).

What was measured:
recombinant 5-Lox = biological target: T1, recombinant 5-Lox (Homo sapiens, UniProt P09917); experiment: Assay for 5-Lipoxygenase Activity; assay type: biochemical; settings: arachidonic acid, absorbance at 236 nm (AUC), range stated for the group of compounds tested, read-out: 5-1, poxygenase inhibition IC50
T1 sequence (P09917 1-674): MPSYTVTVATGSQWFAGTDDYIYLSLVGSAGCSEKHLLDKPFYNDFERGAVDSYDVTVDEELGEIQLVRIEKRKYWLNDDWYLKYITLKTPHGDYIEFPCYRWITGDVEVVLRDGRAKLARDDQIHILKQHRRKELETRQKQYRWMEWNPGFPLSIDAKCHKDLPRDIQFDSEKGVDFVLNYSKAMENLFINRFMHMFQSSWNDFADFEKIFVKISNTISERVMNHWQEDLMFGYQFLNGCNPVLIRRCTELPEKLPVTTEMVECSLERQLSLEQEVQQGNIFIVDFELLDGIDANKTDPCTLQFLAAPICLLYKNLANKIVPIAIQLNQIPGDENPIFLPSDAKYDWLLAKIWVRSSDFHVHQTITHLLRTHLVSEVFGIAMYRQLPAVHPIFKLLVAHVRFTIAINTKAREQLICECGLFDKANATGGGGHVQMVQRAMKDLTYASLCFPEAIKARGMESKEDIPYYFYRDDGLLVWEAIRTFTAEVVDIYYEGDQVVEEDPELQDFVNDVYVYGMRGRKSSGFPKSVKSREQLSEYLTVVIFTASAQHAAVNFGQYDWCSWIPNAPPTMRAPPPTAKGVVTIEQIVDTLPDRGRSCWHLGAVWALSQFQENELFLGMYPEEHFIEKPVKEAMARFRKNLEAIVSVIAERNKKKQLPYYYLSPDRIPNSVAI
Method: Assay for 5-Lipoxygenase Activity
In a 96 well UV-plate, 100 μl of phosphate buffer saline (PBS) containing DTT (200 μM), ATP (100 μM) and calcium chloride (100 μM) was added. To each well 0.5 μl of test drug (200 times concentrated) or vehicle was added, followed by 4 μl of recombinant 5-Lox (3 units/μl) and was incubated at 37° C. for 5 min. The reaction was initiated by adding 1 μl of 1 mM freshly prepared arachidonic acid and increase in absorbance was monitored at 236 nm for 10 min. (J Biol. Chem. 261:11512, 1986) A plot of absorbance verses time curve was prepared and area under curve (AUC) was computed for each well. Percent inhibition of AUC for different treatments was calculated with respect to the difference between the Arachidonic acid stimulated and negative control values, to compute IC50 values.

LTB4 release = experiment: A23187 Induced LTB4 Release; assay type: cell-based; settings: Neutrophil; neutrophils from healthy human donors, 1 hour with test drug, 0.3 μg/ml A23187 for 10 min, LTB4 ELISA; range stated for the group of compounds tested; read-out: A123187 induced LTB4 release IC50
Method: The compounds of the present invention are tested in one or both of the assays described herein. Standard assays are used to evaluate activity of compounds in present invention on inflammatory cells. Attenuation of agonist-induced release of lipid mediator of neutrophil chemotaxis, leukotriene B4 (LTB4), is used to evaluate Inhibitory effect on neutrophils.
Venous blood was collected from healthy human donors using heparin as an anti-coagulant. Neutrophils were isolated from freshly drawn blood after dextran sedimentation and ficoll separation (Eur J Biochem. 169, 175, 1987), 180 μl of the of neutrophil suspension (0.2×10^6 cells/ml) was taken and added 19 μL of Hank's Buffer salt solution along with 1 μL of the test drug (200 times concentrated) in a 24 well plate and incubated at 37° C. for 1 hour, 3 minutes before the end of test compound incubation, 0.25 mM Ca^++/Mg^++ were added. Then, 0.3 μg/ml A23187 (Sigma Chem, USA) was added and incubated for further 10 min at 37° C. The reaction was stopped by adding 80 μL of cold methanol and centrifuged to remove cell debris (J Pharmacol Exp Ther. 297:267, 2001). The samples were analysed for LTB4 release using LTB4ELISA kits (Assay Design Inc., USA). The amount of LTB4 released was quantified and percent inhibition of LTB4 release was calculated with respect to the difference between the A23187 stimulated and negative control cells, to compute IC50 values.

IC50 (recombinant 5-Lox) [µM]	SMILES	IC50 (LTB4 release) [µM]
0.3 to 10	CC1(C)OCC(C2OC3OC(C)(C)OC3C2NC(=S)Nc2ccc(F)cc2)O1 [Compound No. 55, 1,2;5,6-Di-O-isopropylidene-3-deoxy-3-{[(4-fluorophenyl)-amino]thiocarbonyl}-amino-α-D-allofuranoside]	–
0.3 to 10	CC1(C)O[C@H]2O[C@H]([C@H]3COC(C)(C)O3)[C@@H](NC(=S)Nc3ccc(Cl)c(Cl)c3)[C@H]2O1 [Compound No. 60, 1,2;5,6-Di-O-isopropylidene-3-deoxy-3-{[(3,4-dichlorophenyl)-amino]thiocarbonyl}-amino-α-D-allofuranoside]	–
0.3 to 10	CC1(C)OCC(C2OC3OC(C)(C)OC3C2NC(=S)Nc2ccc(OCc3ccccc3)cc2)O1 [Compound No. 63, 1,2;5,6-Di-O-isopropylidene-3-deoxy-3-{[(4-benzyloxyphenyl)amino]thiocarbonyl}-amino-α-D-allofuranoside]	–
0.3 to 10	CC1(C)O[C@H]2O[C@H]([C@H]3COC(C)(C)O3)[C@@H](NC(=S)Nc3ccccc3[N+](=O)[O-])[C@H]2O1 [Compound No. 67, 1,2;5,6-Di-O-isopropylidene-3-deoxy-3-{[(2-nitrophenyl)-amino]thiocarbonyl}-amino-α-D-allofuranoside]	–
0.3 to 10	CC1(C)OCC(C2OC3OC(C)(C)OC3C2NC(=S)Nc2ccc(C#N)cc2)O1 [Compound No. 68, 1,2;5,6-Di-O-isopropylidene-3-deoxy-3-{[(4-cyanophenyl)-amino]thiocarbonyl}-amino-α-D-allofuranoside]	–
0.3 to 10	CC1(C)OCC(C2OC3OC(C)(C)OC3C2NC(=O)Cc2ccccc2C(F)(F)F)O1 [Compound No. 80, 1,2;5,6-Di-O-isopropylidene-3-deoxy-3-{[(2-trifluoromethylphenyl)-methyl]carbonyl}-amino-α-D-allofuranoside]	0.13 to 30
0.3 to 10	CC1(C)OCC(C2OC3OC(C)(C)OC3C2NC(=O)Cc2cccc(Cl)c2)O1 [Compound No. 84, 1,2;5,6-Di-O-isopropylidene-3-deoxy-3-{[(3-chlorophenyl)-methyl]carbonyl}-amino-α-D-allofuranoside]	0.13 to 30
0.3 to 10	CC1(C)OCC(C2OC3OC(C)(C)OC3C2NC(=O)Cc2ccc(Cl)c(Cl)c2)O1 [Compound No. 100, 1,2;5,6-Di-O-isopropylidene-3-deoxy-3-{[(3,4-dichlorophenyl)-methyl]carbonyl}-amino-α-D-allofuranoside]	0.13 to 30
–	CC1(C)OCC(C2OC3OC(C)(C)OC3C2NC(=S)Nc2ccc(F)cc2)O1 [Compound No. 101, 1,2;5,6-Di-O-isopropylidene-3-deoxy-3-{[(4-fluorophenyl)-amino]thiocarbonyl}-amino-α-D-glucofuranoside]	0.13 to 30
0.3 to 10	CC1(C)OCC(C2OC3OC(C)(C)OC3C2NC(=S)Nc2ccccc2F)O1 [Compound No. 103, 1,2;5,6-Di-O-isopropylidene-3-deoxy-3-{[(2-fluorophenyl)-amino]thiocarbonyl}-amino-α-D-glucofuranoside]	0.13 to 30
